Test results reported in publication PMC8206213, “An L-2-hydroxyglutarate biosensor based on specific transcriptional regulator LhgR” (Nature Communications, 2021).
Where “and” joins values, the source holds several entries; their conditions need not be identical. Equal values may be shown once.

Experiments:
LhgR = test: EMSA, effect of compounds on LhgR binding to the lhgO promoter region F1; design: species or system Pseudomonas putida W619; conditions: 50 mM compound, 10 nM F1, 60 nM LhgR
Protocol: Electrophoretic mobility shift assays (EMSAs) were carried out using the DNA fragment (F1 or F2) and purified LhgR. The DNA fragments were first amplified by primer pairs F1-F/F1-R and F2-F/F2-R, respectively. Then, either fragment at a concentration of 10 nM DNA was incubated with LhgR (0–160 nM) in 20 μL EMSA binding buffer (10 mM Tris-HCl [pH 7.4], 50 mM KCl, 0.5 mM EDTA, 10% [vol/vol] glycerol, and 1 mM dithiothreitol [DTT]). The binding reactions were carried out at 30 °C for 30 min. Electrophoresis was performed on 6% native polyacrylamide gels at 4 °C and 170 V (constant voltage) for about 45 min, followed by staining with SYBR green I (TaKaRa, China) and photographing. Analysis of the interaction between lhgO promoter region (F1) and LHGFR was performed using the same procedure.
To characterize the effector of LhgR, purified LhgR was first incubated with L-lysine, 5-aminovalerate, glutarate, L-2-HG, D-2-HG, 2-KG, or succinate at 30 °C for 15 min, followed by incubation with the added DNA fragments at 30 °C for 30 min. The mixtures were subsequently subjected to electrophoresis.

LHGFR0N3C [1] = test: Specificity of purified LHGFR0N3C, emission ratio with 240 μM compounds; type: binding, Pseudomonas putida W619; conditions: 240 μM compound
Protocol: (§1) Purified L-2-HG biosensors and different compounds were diluted by 50 mM Tris-HCl buffer (pH 7.4), mixed together in a black 96-well plate at a volume ratio of 3:1, and the fluorescence intensities were measured using an EnSight microplate reader (PerkinElmer, USA) with excitation at 430 nm, emission at 485 nm (mTFP) and 528 nm (Venus). […] The [L-2-HG], Kd, and p refer to the L-2-HG concentration, apparent dissociation constant, and Hill slope, respectively. Emission spectra were recorded at 430 nm excitation, in steps of 2 nm. Excitation spectra were recorded using emission at 550 nm, excitation from 380 to 535 nm in steps of 2 nm.

LHGFR0N7C [2] = test: Specificity of purified LHGFR0N7C, emission ratio with 240 μM compounds; type: binding, Pseudomonas putida W619; conditions: 240 μM compound
Protocol: as §1

LHGFR0N3C [3] = test: Influence of other compounds on the response of purified LHGFR0N3C to L-2-HG; type: binding, Pseudomonas putida W619; conditions: Suppl. Fig. 9a; L-2-HG alone or with the compound; three replicates
Protocol: as §1

LHGFR0N7C [4] = test: Influence of other compounds on the response of purified LHGFR0N7C to L-2-HG; type: binding, Pseudomonas putida W619; conditions: Suppl. Fig. 9b; L-2-HG alone or with the compound; three replicates
Protocol: as §1

[5] = target: LhgR (Pseudomonas putida W619); test: SEC; gel filtration on Superdex 200 10/300 GL against protein mass standards, compared with SDS-PAGE; 50 mM sodium phosphate, 150 mM sodium chloride, pH 7.2
HEK293FT cells = test: Hypoxia-induced L-2-HG production in LHGFR-expressing HEK293FT cells with or without 5 mM DMαKG; type: cell-based, human; conditions: for L-2-HG concentration: in µM
Protocol: HEK293FT cells were cultured in high-glucose Dulbecco’s modified eagle medium (DMEM) supplemented with 10% (vol/vol) fetal bovine serum (FBS), 100 units mL^−1 penicillin, and 100 μg mL^−1 streptomycin (all purchased from ThermoFisher, USA), and kept at 37 °C in humidified air containing 5% CO2. For hypoxia experiments, cells were kept in a compact O2 and CO2 subchamber controller (ProOx C21, BioSpherix, USA) at 2% O2, 5% CO2, and balanced with N2 for 24 h. For the construction of LHGFR expressing cell, HEK293FT cells were plated in 24-well plates so that they reached 70-90% confluency 24 h after plating, the medium was refreshed 2 h before transfection.
The preparation of cell suspensions and the measurement of emission ratios were performed using the same procedure. The background fluorescence was subtracted at each emission wavelength.

Compound | Effect on LhgR binding to the lhgO promoter region F1 (LhgR) | Emission ratio (LHGFR0N3C [1]) | Induction of emission ratio changes (LHGFR0N3C [1]) | Emission ratio (LHGFR0N7C [2]) | Induction of emission ratio changes (LHGFR0N7C [2]) | Emission ratio (LHGFR0N3C [3]) | Emission ratio (LHGFR0N7C [4]) | stoichiometry N [5] | Normalized emission ratio (HEK293FT cells; 2% O2, With DMaKG, Supplementary Fig. 18e) | Normalized emission ratio (HEK293FT cells; 21% O2, With DMaKG, Supplementary Fig. 18e) | Normalized emission ratio (HEK293FT cells; Fig. 6f, 2% O2, With DMaKG) | L-2-HG concentration (HEK293FT cells; Fig. 6f, 2% O2, With DMaKG) | Normalized emission ratio (HEK293FT cells; Fig. 6f, 21% O2, With DMaKG) | L-2-HG concentration (HEK293FT cells; Fig. 6f, 21% O2, With DMaKG)
NCCCC[C@H](N)C(=O)O [L-Lysine, L-lysine] | observed only in the presence of L-2-HG | 1.377 and 1.382 and 1.394 | None | 1.692 and 1.701 and 1.71 | None | 2.026 and 2.06 and 2.101 | 2.577 and 2.607 and 2.654 | – | – | – | – | – | – | –
LhgR (natural protein) | – | – | – | – | – | – | – | 2 | – | – | – | – | – | –
COC(=O)CCC(=O)C(=O)OC [DMaKG] | – | – | – | – | – | – | – | – | 1.018 and 0.9342 and 1.029 and 0.9552 | 1.029 and 0.993 and 1.008 and 0.9754 | 1.196 and 1.188 and 1.187 and 1.206 | 547.911 and 427.301 and 412.83 and 794.44 | 1.081 and 1.084 and 1.102 and 1.071 | 66.2807 and 68.36 and 87.5008 and 58.4114
NCCCCC(=O)O [5-Aminovalerate, 5-aminovalerate] | observed only in the presence of L-2-HG | 1.403 and 1.397 and 1.408 | None | 1.703 and 1.69 and 1.7015 | None | 2.084 and 2.019 and 2.1 | 2.625 and 2.696 and 2.709 | – | – | – | – | – | – | –
